According to patent US7267715B2, “Ink and ink set” (Fujifilm Corporation, priority 2003, dated 2007):

Test: Oxidation potential by cyclic voltammetry
Type: physicochemical
Conditions: test method of the specification (dimethylformamide, tetrapropylammonium perchlorate)
Description: More specifically, a test sample is dissolved to a concentration of 1×10^−6 to 1×10^−4 mol/liter in a solvent such as dimethylformamide or acetonitrile containing a supporting electrolyte such as sodium perchlorate or tetrapropylammonium perchlorate and the oxidation potential is measured as a value to SCE (saturated calomel electrode) using a cyclic voltammetry. This value sometimes deviates on the order of tens of millivolt due to the effect of liquid junction potential, liquid resistance of sample solution, or the like, however, the reproducibility of potential can be guaranteed by adding a standard sample (for example, hydroquinone). In order to univocally specify the potential, in the present invention, the value (SCE standard) measured in a dimethylformamide (concentration of dye: 0.001·moldm^−3) containing 0.1 mol·dm^−3 of tetrapropylammonium perchlorate as the supporting electrolyte is used as the oxidation potential of the dye. In the case of a water-soluble dye, the dye is sometimes hardly dissolved directly in N,N-dimethylformamide. In such a case, the oxidation potential is measured after dissolving the dye by using water in a small amount as much as possible and then diluting it with N,N-dimethylformamide to have a water content of 2% or less.

oxidation potential	Compound
1.32 V (vs SCE)	Cc1c(C#N)c(Nc2ccc(S(=O)(=O)[O-])cc2)nc(Nc2ccc(S(=O)(=O)[O-])cc2)c1N=Nc1sc(N=Nc2cc(C(=O)[O-])cc(C(=O)[O-])c2)cc1C#N.[Li+].[Li+].[Li+].[Li+] [BK-4]
1.29 V (vs SCE)	Cc1cc(C)c(S(=O)(=O)[O-])c(C)c1Nc1nc(N(c2nc3ccc(S(=O)(=O)[O-])cc3s2)c2c(C)cc(C)c(S(=O)(=O)O)c2C)ccc1/N=N/c1c(C#N)c(C(C)(C)C)nn1-c1nc2ccc(S(=O)(=O)[O-])cc2s1.[K+].[K+].[Na+] [M-3]
1.25 V (vs SCE)	CC(C)(C)c1nn(-c2nc(Nc3cc(C(=O)[O-])cc(C(=O)[O-])c3)nc(Nc3cc(C(=O)[O-])cc(C(=O)[O-])c3)n2)c(N)c1/N=N/c1ncns1.[Na+].[Na+].[Na+].[Na+] [Y-2]
1.22 V (vs SCE)	CC(C)CSc1nnc(/N=N/c2c(C(C)(C)C)nn(-c3nc(Nc4cc(C(=O)[O-])cc(C(=O)[O-])c4)nc(Nc4cc(C(=O)[O-])cc(C(=O)[O-])c4)n3)c2N)s1.[K+].[K+].[K+].[K+] [Y-3]
